According to patent publication US20190223483A1, “SENSORY MODIFIER COMPOUNDS” (CARGILL, INCORPORATED, priority 2017, published 2019):

Assays:
Type in all cases: in vivo
[1] = Roundtable assessment of mouthfeel (scale 0 to 2); conditions: steviol glycoside 700 ppm + yerba mate mono/dicaffeoylquinic acids 810 ppm
Description: (§1) For other sweetness attributes, the solutions were tested by a panel of at least four individuals that are highly-trained in tasting steviol glycoside solutions. The highly-trained panelists used a roundtable methodology to assess each sweetness attribute. To test each solution, the highly-trained panelists dispensed approximately 2 mL of each solution into their own mouths by transfer pipet, dispersed the solution by moving their tongues, and recorded a value for the particular sweetness attribute being tested. Between tasting solutions, the panelists were able to cleanse their palates with water. For each sweetness attribute, the panelist agreed on a descriptive scale with relative intensities assigned for each sweetness attribute and then recorded the values for each sweetness attribute against this. For example, this roundtable assessment of sweetness linger assigned a scale of 0 to 6 with a score of 0 indicating no sweetness linger and a score of 6 indicating extreme sweetness linger. Roundtable assessment of sweetness linger assigned a scale of 0 to 6 with a score of 0 indicating no sweetness linger and a score of 6 indicating extreme sweetness linger (0=none, 1=trace, 2=slight, 3=moderate, 4=definite, 5=strong, 6=extreme). Roundtable assessment of rounded assigned a scale of 0 to 3 with a score of 0 indicating spikey and a score of 3 indicating desirable rounded (0=none, 1=mostly spikey, some rounded, 2=mostly rounded, some spikey, 3=rounded). Roundtable assessment of mouthfeel assigned a scale of 0 to 2 with a score of 0 indicating water and a score of 2 indicating syrupy (0=water, 1=sucrosey, 2=syrupy). Roundtable assessment of bitterness assigned a scale of 0 to 6 with a score of 0 indicating no bitterness and a score of 6 indicating extreme sweetness linger (0=none, 1=trace, 2=slight, 3=moderate, 4=definite, 5=strong, 6=extreme). Roundtable assessment of off tastes assigned a scale of 0 to 6 with a score of 0 indicating no bitterness and a score of 6 indicating extreme off tastes (0=none, 1=trace, 2=slight, 3=moderate, 4=definite, 5=strong, 6=extreme).
A series of assays were carried out to characterize a sweetness quality of mouthfeel (0=water, 1=sucrosey, 2=syrupy) of steviol glycoside compositions with sensory modifier compound using the roundtable methodology described in Example 1. […] Solutions of steviol glycosides and sensory modifier compound were prepared at increasing ratios of sensory modifier to steviol glycoside by weight. The steviol glycosides were RebA (4 glycoside groups), RebD (5 glycoside groups), RebM (6 glycoside groups), and OPS1-5(7 glycoside groups) and the sensory modifier compound was monocaffeoylquinic and dicaffeoylquinic acids prepared from yerba mate. The concentration of steviol glycosides was 700 ppm in each solution. […]

[2] = Roundtable assessment of spikey/rounded sweetness quality (scale 0 to 3); set-up: key: 0=none; 1=mostly spikey, some rounded; 2=mostly rounded, some spikey; 3=rounded
Description: as §1
A series of assays were carried out to characterize a sweetness quality of a not preferred spikey quality (a zero value) to a more desirable rounded quality (a 3 value) of steviol glycoside compositions with sensory modifier compound using the roundtable methodology described in Example 1. Rounded quality has the sensory experience of being more like sucrose. […] Solutions of steviol glycosides and sensory modifier compound were prepared at increasing ratios of sensory modifier to steviol glycoside by weight. The steviol glycosides were RebA (4 glycoside groups), RebD (5 glycoside groups), RebM (6 glycoside groups), and OPS1-5(7 glycoside groups) and the sensory modifier compound was monocaffeoylquinic and dicaffeoylquinic acids prepared from yerba mate. […] The solutions were tested for spikey/rounded.

[3] = Roundtable assessment of botanical notes (scale 0 to 5); set-up: key: 0 = none; 1 = trace/faint; 2 = slight; 3 = moderate; 4 = definite; 5 = strong; 6 = extreme
Description: as §1
Roundtable assessment of botanical notes assigned a scale of 0 to 5 with a score of 0 indicating no botanical notes and a score of 5 indicating strong (0=none, 1=trace, 2=slight, 3=moderate, 4=definite, 5=strong).
A series of assays were carried out to characterize botanical notes of sensory modifier compound (0=none, 1=trace/faint, 2=slight, 3=moderate, 4=definite, 5=strong) in steviol glycoside compositions using the roundtable methodology described in Example 1. […] Solutions of steviol glycosides and sensory modifier compound were prepared at increasing ratios of sensory modifier to steviol glycoside by weight. […] The concentration of steviol glycosides was 700 ppm in each solution. The solutions were tested for botanical notes.

[4] = Roundtable assessment of bitterness (scale 0 to 6); set-up: key: 0 = none; 1 = trace/faint; 2 = slight; 3 = moderate; 4 = definite; 5 = strong; 6 = extreme
[5] = Overall sweetness quality preference; set-up: key: ! = preferred; !! = very preferred; !!! = most preferred
Description: A series of assays were carried out to determine overall sweetness quality preference for steviol glycoside with sensory modifier compound. Solutions of steviol glycosides and sensory modifier compound were prepared at varying concentrations of steviol glycoside and sensory modifier compound. The steviol glycoside was RebM and the sensory modifier compound was monocaffeoylquinic and dicaffeoylquinic acids prepared from yerba mate. The concentration of steviol glycosides was between 0 ppm and 1600 ppm. The concentration of sensory modifier compound was between 0 ppm and 1600 ppm. The solutions were tested for overall sweetness quality preference (!=preferred, !!=very preferred, and !!!=most preferred).

[6] = Roundtable assessment of off taste (scale 0 to 6); set-up: key: 0 = none; 1 = trace/faint; 2 = slight; 3 = moderate; 4 = definite; 5 = strong; 6 = extreme
[7] = steviol glycoside 700 ppm + yerba mate mono/dicaffeoylquinic acids 270 ppm
[8] = steviol glycoside 700 ppm + yerba mate mono/dicaffeoylquinic acids 540 ppm
[9] = steviol glycoside 700 ppm + yerba mate mono/dicaffeoylquinic acids 810 ppm
[10] = steviol glycoside 700 ppm, sensory modifier 0 ppm
[11] = RebM 700 ppm + rosmarinic acid 195 ppm
[12] = RebM 700 ppm + rosmarinic acid 391 ppm
[13] = RebM 700 ppm + rosmarinic acid 586 ppm
[14] = steviol glycoside 700 ppm + yerba mate mono/dicaffeoylquinic acids 236 ppm
[15] = steviol glycoside 700 ppm + yerba mate mono/dicaffeoylquinic acids 300 ppm
[16] = steviol glycoside 700 ppm + yerba mate mono/dicaffeoylquinic acids 400 ppm
[17] = steviol glycoside 700 ppm + yerba mate mono/dicaffeoylquinic acids 472 ppm
[18] = steviol glycoside 700 ppm + yerba mate mono/dicaffeoylquinic acids 500 ppm
[19] = steviol glycoside 700 ppm + yerba mate mono/dicaffeoylquinic acids 600 ppm
[20] = steviol glycoside 700 ppm + yerba mate mono/dicaffeoylquinic acids 700 ppm
[21] = steviol glycoside 700 ppm + yerba mate mono/dicaffeoylquinic acids 708 ppm
[22] = steviol glycoside 700 ppm + yerba mate mono/dicaffeoylquinic acids 800 ppm
[23] = RebM 700 ppm + cichoric acid (tartaric backbone) 514 ppm
[24] = RebM 700 ppm + cichoric acid (tartaric backbone) 772 ppm

C=C1C[C@@]23CC[C@H]4[C@@](C)(CCC[C@@]4(C)C(=O)O[C@@H]4O[C@H](CO)[C@@H](O)[C@H](O)[C@H]4O[C@@H]4O[C@H](CO)[C@@H](O)[C@H](O)[C@H]4O)[C@@H]2CC[C@]1(O[C@@H]1O[C@H](CO)[C@@H](O)[C@H](O[C@@H]2O[C@H](CO)[C@@H](O)[C@H](O)[C@H]2O)[C@H]1O[C@@H]1O[C@H](CO)[C@@H](O)[C@H](O)[C@H]1O)C3 [RebD, Rebaudioside D]
3: Spikey/rounded (spikey = 0) (rounded = 3) [2, 8] | Spikey/rounded (spikey = 0) (rounded = 3) [2, 9]
1: Spikey/rounded (spikey = 0) (rounded = 3) [2, 7]
0: Botanical notes [3, 7] | Botanical notes [3, 8]
no perceptible botanical notes: Botanical notes ([3]; Reb D 700 ppm, 0 ppm to about 500 ppm sensory modifier)
slight: Botanical notes ([3]; Reb D 700 ppm, about 800 ppm sensory modifier)
Not noted by panel: Mouthfeel [1]
2: Spikey/rounded (spikey = 0) (rounded = 3) [2, 10] | Botanical notes [3, 9]
Not observed: Botanical notes [3, 10]

C=C1C[C@@]23CC[C@H]4[C@@](C)(CCC[C@@]4(C)C(=O)O[C@@H]4O[C@H](CO)[C@@H](O)[C@H](O[C@@H]5O[C@H](CO)[C@@H](O)[C@H](O)[C@H]5O)[C@H]4O[C@@H]4O[C@H](CO)[C@@H](O)[C@H](O)[C@H]4O)[C@@H]2CC[C@]1(O[C@@H]1O[C@H](CO)[C@@H](O)[C@H](O[C@@H]2O[C@H](CO)[C@@H](O)[C@H](O)[C@H]2O)[C@H]1O[C@@H]1O[C@H](CO)[C@@H](O)[C@H](O)[C@H]1O)C3 [RebM, Rebaudioside M]
2: Spikey/rounded (spikey = 0) (rounded = 3) [2, 12] | Spikey/rounded (spikey = 0) (rounded = 3) ([2]; RebM 700 ppm + yerba mate mono/dicaffeoylquinic acids 700 ppm (1:1)) | rounded quality ([2]; RebM 700 ppm, above 200 ppm sensory modifier) | Spikey/rounded (spikey = 0) (rounded = 3) ([2]; RebM 800 ppm + yerba mate mono/dicaffeoylquinic acids 800 ppm (1:1)) | Spikey/rounded (spikey = 0) (rounded = 3) ([2]; RebM 900 ppm + yerba mate mono/dicaffeoylquinic acids 900 ppm (1:1)) | Spikey/rounded (spikey = 0) (rounded = 3) ([2]; RebM 1000 ppm + yerba mate mono/dicaffeoylquinic acids 1000 ppm (1:1)) | Spikey/rounded (spikey = 0) (rounded = 3) ([2]; RebM 1100 ppm + yerba mate mono/dicaffeoylquinic acids 1100 ppm (1:1)) | Spikey/rounded (spikey = 0) (rounded = 3) ([2]; RebM 1200 ppm + yerba mate mono/dicaffeoylquinic acids 1200 ppm (1:1)) | Spikey/rounded (spikey = 0) (rounded = 3) ([2]; RebM 1300 ppm + yerba mate mono/dicaffeoylquinic acids 1300 ppm (1:1)) | Spikey/rounded (spikey = 0) (rounded = 3) ([2]; RebM 1400 ppm + yerba mate mono/dicaffeoylquinic acids 1400 ppm (1:1)) | Spikey/rounded (spikey = 0) (rounded = 3) ([2]; RebM 1500 ppm + yerba mate mono/dicaffeoylquinic acids 1500 ppm (1:1)) | Spikey/rounded (spikey = 0) (rounded = 3) ([2]; RebM 1600 ppm + yerba mate mono/dicaffeoylquinic acids 1600 ppm (1:1)) | Spikey/rounded (spikey = 0) (rounded = 3) [2, 14] | Spikey/rounded (spikey = 0) (rounded = 3) [2, 15] | Spikey/rounded (spikey = 0) (rounded = 3) [2, 19] | Botanical notes [3, 11] | Botanical notes [3, 13] | Botanical notes [3, 19] | Botanical notes [3, 20] | Botanical notes [3, 21] | Botanical notes [3, 22] | Off taste [6, 12]
4: Botanical notes [3, 23]
5: Botanical notes [3, 24]
!: Sweetness Quality preferred ([5]; quinic acid backbone modifier 500 ppm, RebM 600 ppm) | Sweetness Quality preferred ([5]; quinic acid backbone modifier 600 ppm, RebM 400 ppm) | Sweetness Quality preferred ([5]; quinic acid backbone modifier 600 ppm, RebM 700 ppm) | Sweetness Quality preferred ([5]; quinic acid backbone modifier 800 ppm, RebM 400 ppm) | Sweetness Quality preferred ([5]; quinic acid backbone modifier 800 ppm, RebM 600 ppm) | Sweetness Quality preferred ([5]; quinic acid backbone modifier 800 ppm, RebM 700 ppm)
1: Spikey/rounded (spikey = 0) (rounded = 3) ([2]; RebM 300 ppm + yerba mate mono/dicaffeoylquinic acids 300 ppm (1:1)) | Spikey/rounded (spikey = 0) (rounded = 3) ([2]; RebM 400 ppm + yerba mate mono/dicaffeoylquinic acids 400 ppm (1:1)) | Spikey/rounded (spikey = 0) (rounded = 3) ([2]; RebM 500 ppm + yerba mate mono/dicaffeoylquinic acids 500 ppm (1:1)) | Spikey/rounded (spikey = 0) (rounded = 3) ([2]; RebM 600 ppm + yerba mate mono/dicaffeoylquinic acids 600 ppm (1:1)) | Botanical notes [3, 17]
imperceptible: Botanical notes ([3]; RebM 700 ppm, quinic backbone modifier between 0 ppm and about 400 ppm)
!!: Sweetness Quality preferred ([5]; quinic acid backbone modifier 400 ppm, RebM 600 ppm) | Sweetness Quality preferred ([5]; quinic acid backbone modifier 400 ppm, RebM 700 ppm) | Sweetness Quality preferred ([5]; quinic acid backbone modifier 700 ppm, RebM 800 ppm)
0: Spikey/rounded (spikey = 0) (rounded = 3) ([2]; RebM 100 ppm + yerba mate mono/dicaffeoylquinic acids 100 ppm (1:1)) | Spikey/rounded (spikey = 0) (rounded = 3) ([2]; RebM 200 ppm + yerba mate mono/dicaffeoylquinic acids 200 ppm (1:1)) | Spikey/rounded (spikey = 0) (rounded = 3) [2, 11] | Spikey/rounded (spikey = 0) (rounded = 3) [2, 10] | Botanical notes [3, 15] | Botanical notes [3, 16] | Botanical notes [3, 18] | Botanical notes [3, 10] | Bitterness [4, 23] | Bitterness [4, 13] | Off taste [6, 23] | Off taste [6, 24]
Not Observed: Botanical notes [3, 14]
3: Spikey/rounded (spikey = 0) (rounded = 3) [2, 13] | rounded quality ([2]; RebM solution with 300 ppm sensory modifier) | Spikey/rounded (spikey = 0) (rounded = 3) [2, 16] | Spikey/rounded (spikey = 0) (rounded = 3) [2, 17] | Spikey/rounded (spikey = 0) (rounded = 3) [2, 18] | Spikey/rounded (spikey = 0) (rounded = 3) [2, 20] | Spikey/rounded (spikey = 0) (rounded = 3) [2, 21] | Spikey/rounded (spikey = 0) (rounded = 3) [2, 22] | Botanical notes ([3]; RebM 700 ppm + cichoric acid (tartaric backbone) […]) | Botanical notes [3, 12]
!!!: Sweetness Quality preferred ([5]; quinic acid backbone modifier 500 ppm, RebM 700 ppm)
